This is an account of results in patent US10231969B2, “Anti-neoplastic combinations and dosing regimens using CDK4/6 inhibitor compounds to treat RB-positive tumors” (G1 Therapeutics, Inc., priority 2014, dated 2019).

For orientation: EC50 means the midpoint of the concentration-response curve.

One data set addresses CDK4/CyclinD1 (Homo sapiens, UniProt P11802). Description: CDK4/cyclinD1 kinase assay (Nanosyn, Caliper microfluidic). It is filed as biochemical. Conditions: read-out: CDK4/CycD1 IC50. As to the method: (§1) Selected compounds disclosed herein were tested in CDK4/cyclinD1, CDK2/CycA and CDK2/cyclinE kinase assays by Nanosyn (Santa Clara, Calif.) to determine their inhibitory effect on these CDKs. The assays were performed using microfluidic kinase detection technology (Caliper Assay Platform). The compounds were tested in 12-point dose-response format in singlicate at Km for ATP. Phosphoacceptor substrate peptide concentration used was 1 μM for all assays and Staurosporine was used as the reference compound for all assays. Specifics of each assay are as described below:
CDK4/CyclinD1: Enzyme concentration: 1 nM; ATP concentration: 200 μM; Incubation time: 10 hr.

In another data set the target is T1, CDK2/CyclinE (Homo sapiens, UniProt P24941).
T1 construct: Nanosyn (Santa Clara, Calif.) ran the assay as a service
The experiment in a line: CDK2/cyclinE kinase assay (Nanosyn, Caliper microfluidic). Conditions: Table 2; for IC50: ATP 100 μM, read-out: CDK2/CycE IC50. It is filed as biochemical. Here is the method: Selected compounds disclosed herein were tested in CDK4/cyclinD1, CDK2/CycA and CDK2/cyclinE kinase assays by Nanosyn (Santa Clara, Calif.) to determine their inhibitory effect on these CDKs. The assays were performed using microfluidic kinase detection technology (Caliper Assay Platform). The compounds were tested in 12-point dose-response format in singlicate at Km for ATP. Phosphoacceptor substrate peptide concentration used was 1 μM for all assays and Staurosporine was used as the reference compound for all assays.

The target in a further data set is T2, CDK2/CyclinA (Homo sapiens, UniProt P24941).
T2 construct: Nanosyn (Santa Clara, Calif.) ran the assay as a service
Description: CDK2/CycA kinase assay (Nanosyn, Caliper microfluidic). Conditions: Table 2; for IC50: ATP 50 μM. It is filed as biochemical. As to the method:
as §1
CDK2/CyclinA: Enzyme concentration: 0.2 nM; ATP concentration: 50 μM; Incubation time: 3 hr.

For data set [1], the system named is HS68 cells (human skin fibroblast cell line (Rb-positive)). Description: G1 arrest (cellular G1 and S-phase) assay. It is filed as cell-based. As to the method:
The fraction of cells in G0-G1 DNA cell cycle versus the fraction in S-phase DNA cell cycle was determined using FlowJo 7.2.2 analysis.
The compounds listed in Table 1 were tested for their ability to arrest HS68 cells at the G1 phase of the cell cycle.

Data set [2] deals with MCF7 (breast adenocarcinoma—Rb-positive). The experiment in a line: Cellular proliferation assay (CellTiter-Glo), MCF7. It is filed as cell-based. As to conditions: Homo sapiens, MCF7, 144 h, six days. Here is the method: (§2) Cellular proliferation assays were further conducted using the following cancer cell lines: MCF7 (breast adenocarcinoma—Rb-positive), ZR-75-1 (breast ductal carcinoma—Rb-positive), H69 (human small cell lung cancer—Rb-negative) cells, or A2058 (human metastatic melanoma cells—Rb-negative). These cells were seeded in Costar (Tewksbury, Mass.) 3093 96 well tissue culture treated white walled/clear bottom plates. Cells were treated with the compounds of Table 1 as nine point dose response dilution series from 10 uM to 1 nM. Cells were exposed to compounds and then cell viability was determined after either four (H69) or six (MCF7, ZR75-1, A2058) days as indicated using the CellTiter-Glo® luminescent cell viability assay (CTG; Promega, Madison, Wis., United States of America) following the manufacturer's recommendations. Plates were read on BioTek (Winooski, Vt.) Syngergy2 multi-mode plate reader. The Relative Light Units (RLU) were plotted as a result of variable molar concentration and data was analyzed using Graphpad (LaJolla, Calif.) Prism 5 statistical software to determine the EC50 for each compound.
A general note: In ATP-based viability assays light output follows the ATP content of the culture.

Data set [3] relates to H69 (human small cell lung cancer—Rb-negative) cells. The experiment in a line: Cellular proliferation assay (CellTiter-Glo), H69. It is filed as cell-based. Conditions: NCI-H69, 96 h, four days. Here is the method:
as §2

Data set [4] has as its system A2058 (human metastatic melanoma cells—Rb-negative). The experiment in a line: Cellular proliferation assay (CellTiter-Glo), A2058. It is filed as cell-based. Conditions: A2058, 144 h, six days. As to the method:
as §2

Data set [5] in a line: Peripheral blood CBC on day 14 in MCF7 implant model. It is filed as in vivo, Immunodeficient mice. Conditions: Day 14, 100 mg/kg PO QD. The source says: Specific cell counts analyzed were white blood cells (WBC: FIG. 21A), lymphocytes (FIG. 21B), neutrophils (FIG. 21C), monocytes (FIG. 21D), platelets (FIG. 21E), and red blood cells (FIG. 21F).
Data set [6] concerns 456 (395 non-mutant) kinases. Description: DiscoveRx KINOMEscan profiling. As to conditions: 1000 nM. It is filed as binding.
In data set [7] the test system is tHS68 (CDK4/6-dependent; Rb-positive). The experiment in a line: Cell cycle arrest, propidium iodide flow cytometry, tHS68. Conditions: tHS68, 24 hours, highest concentration shown (28% at baseline). It is filed as cell-based. From the text: To test the ability of CDK4/6 inhibitors to induce a clean G1-arrest in Rb-positive cells, a cell based screening method was used consisting of two CDK4/6-dependent cell lines (tHS68 and WM2664; Rb-positive) and one CDK4/6-independent (A2058; Rb-negative) cell line. […] At the conclusion of the experiment, cells were harvested, fixed, and stained with propidium iodide (a DNA intercalator), which fluoresces strongly red (emission maximum 637 nm) when excited by 488 nm light. Samples were run on Dako Cyan flow cytometer and >10,000 events were collected for each sample. Data were analyzed using FlowJo 2.2 software developed by TreeStar, Inc.
On the technique in general: A flow cytometer gives signals particle by particle.

In data set [8] the test system is Rb phosphorylation (Ser780, Ser807/811) in tHS68. The experiment in a line: Rb phosphorylation western blot, tHS68. It is filed as cell-based. Conditions: tHS68, 300 nM, by 16 hours post exposure. As to the method: (§3) The CDK4/6-cyclin D complex is essential for progression from G1 to the S-phase of the DNA cell cycle. This complex phosphorylates the retinoblastoma tumor suppressor protein (Rb). […] Samples were lysed and protein was assayed by western blot analysis. Rb phosphorylation was measured at two sites targeted by the CDK4/6-cyclin D complex, Ser780 and Ser807/811 using species specific antibodies.

Data set [9] has as its system Rb phosphorylation (Ser780, Ser807/811) in WM2664. Description: Rb phosphorylation western blot, WM2664. It is filed as cell-based. As to conditions: WM2664, 300 nM, by 16 hours post exposure. Here is the method: as §3
The subject of data set [10] is bone marrow proliferating cells. The experiment in a line: EdU incorporation in hematopoietic cells after i.p. dose. It is filed as in vivo, C57BL/6 female mice. Conditions: single i.p. dose 50 mg/kg or 100 mg/kg. Here is the method:
At the designated time: 30 min, 1 h, 2 h, 4 h, 6 h, 8 h, 12 h, 18 h, 24 h or 48 h, mice received an injection of 5′-ethynyl-2′-deoxyuridine (EdU). Two hours post EdU injection, mice were sacrificed. As illustrated in FIGS. 12-19, cell lines were isolated and incorporation of EdU was measured. Hematopoietic cell lineages were identified using known cell lineage markers. (See, for example, Challen, et al. “Mouse Hematopoietic Stem Cell Identification and Analysis”, Cytometry A. (2009) 75(1): 14-24).

For data set [11], the system named is ZR-75-1 (breast ductal carcinoma—Rb-positive). Description: Cellular proliferation assay (CellTiter-Glo), ZR-75-1. It is filed as cell-based. As to conditions: Homo sapiens, ZR-75-1, 144 h, six days, read-out: ZR75-1 Cellular EC50. As to the method: as §2
Data set [12] deals with ER+, HER2− locally advanced or metastatic breast cancer. As to conditions: post-menopausal women, at time of final PFS analysis; cited from earlier work.

SMILES strings stand for the structures. Like-named read-outs stand apart in the source and are kept apart here.

Chain of CDK4/CyclinD1 (P11802 whole entry): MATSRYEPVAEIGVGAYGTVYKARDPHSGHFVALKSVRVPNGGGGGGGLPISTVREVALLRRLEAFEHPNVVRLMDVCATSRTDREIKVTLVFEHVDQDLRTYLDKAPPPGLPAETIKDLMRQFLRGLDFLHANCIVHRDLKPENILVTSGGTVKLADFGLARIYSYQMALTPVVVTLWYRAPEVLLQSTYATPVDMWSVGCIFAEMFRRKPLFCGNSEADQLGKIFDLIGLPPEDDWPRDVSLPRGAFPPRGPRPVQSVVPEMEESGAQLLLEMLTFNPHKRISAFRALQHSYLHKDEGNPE
Chain of CDK4/CyclinD1 (P24385 whole entry partner): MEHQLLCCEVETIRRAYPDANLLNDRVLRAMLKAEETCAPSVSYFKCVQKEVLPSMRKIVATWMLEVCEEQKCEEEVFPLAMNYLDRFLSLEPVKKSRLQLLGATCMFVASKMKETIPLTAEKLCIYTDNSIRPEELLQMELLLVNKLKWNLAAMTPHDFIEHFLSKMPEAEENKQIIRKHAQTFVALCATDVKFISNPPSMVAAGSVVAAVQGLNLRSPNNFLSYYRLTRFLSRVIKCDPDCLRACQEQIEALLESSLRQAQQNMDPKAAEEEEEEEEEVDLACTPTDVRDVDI

Take `CN1CCN(C(=O)c2ccc(Cc3ncc4cc5n(c4n3)C3(CCCC3)CNC5=O)nc2)CC1` [BBB]: the IC50 on CDK4/CyclinD1 (Table 2, ATP at Km (200 μM)) came out at 2.8 nM; on CDK2/CyclinE it was 0.187 µM; against CDK2/CyclinA, 85 nM. For the same compound, on CDK2/CyclinE (ratio of IC50s), the “Fold Selectivity (CDK2/CycE/CDK4)” value is reported as 68. In addition, the “Fold Selectivity (CDK2/CycA/CDK4)” value at CDK2/CyclinA (ratio of IC50s) was 31. Besides, the EC50 in data set [1] was 230 nM; in [2], 123 nM; in data set [3], over 3000 nM; in data set [4], over 3000 nM.
For `CC(C)N1CCN(c2ccc(Nc3ncc4cc5n(c4n3)C3(CCCCC3)CNC5=O)nc2)CC1` [Compound GG], the IC50 on CDK4/CyclinD1 (Table 3) stood at 1.06 nM. In addition, the IC50 at CDK4/CyclinD1 was determined as 1 nM. Also, in [5], the “lymphocyte count” value was “reduced cell counts”, the “neutrophil count” value is listed as “reduced cell counts”, the “platelet count” value is reported as “reduced cell counts” and the “red blood cell count” value is “reduced cell counts”. The “white blood cell count” value in [5] was “reduced cell counts”.
`CN1CCN(c2ccc(Nc3ncc4cc5n(c4n3)C3(CCCCC3)CNC5=O)nc2)CC1` [Compound T]: the “number of 395 non-mutant kinases inhibited” value in [6] (inhibitory threshold of 65%) was 92; in data set [6] (inhibitory threshold of 90%), 31; in data set [6] (inhibitory threshold of 99%), 6. In addition, the “share of 395 non-mutant kinases inhibited” value in data set [6] (inhibitory threshold of 65%) was found to be 23.3%; in [6] (inhibitory threshold of 90%), 7.8%; in data set [6] (inhibitory threshold of 99%) it was 1.5%. Further, the “cells in S-phase” value in [7] was 6%. For the same compound, the “Rb phosphorylation” value in data set [8] and in data set [9] was “blocks Rb phosphorylation” each time. In addition, the “EdU incorporation, bone marrow” value in data set [10] is “dose and time dependent reduction and recovery of proliferating cells”.
As to `CCN1[C@H](C)CN(c2ccc(Nc3ncc4cc5n(c4n3)C3(CCCCC3)CNC5=O)nc2)C[C@@H]1C` [FF], on CDK4/CyclinD1 (Table 2, ATP at Km (200 μM)), the IC50 worked out at 1.2 nM.
`C[C@@H]1CN(c2ccc(Nc3ncc4cc5n(c4n3)C3(CCCCC3)CNC5=O)nc2)CCN1C[C@@H](C)O` [J]: the IC50 on CDK4/CyclinD1 (Table 2, ATP at Km (200 μM)) was 0.7 nM.
For the compound `CC(C)N1CCN(c2ccc(Nc3ncc4cc5n(c4n3)C3(CCCCC3)CNC5=O)nc2)C[C@H]1C` [L], at CDK4/CyclinD1 (Table 2, ATP at Km (200 μM)), the IC50 worked out at 5.7 nM.
Still for that read-out and setting: as for `CCOCCN1CCN(c2ccc(Nc3ncc4cc5n(c4n3)C3(CCCC3)CNC5=O)nc2)CC1` [MMM], the figure is 3.2 nM; as for `C[C@H]1CN(c2ccc(Nc3ncc4cc5n(c4n3)C3(CCCCC3)CNC5=O)nc2)CCN1CCC(C)(C)C` [M], 2.3 nM.
With `CC1CN(c2ccc(Nc3ncc4cc5n(c4n3)C3(CCCCC3)CNC5=O)nc2)C[C@@H](C)N1CC1CC1` (stereo partly drawn) [OO], the IC50 came to 9 nM on CDK4/CyclinD1 (Table 2, ATP at Km (200 μM)); 3.98 µM at CDK2/CyclinE; 570 nM against CDK2/CyclinA. For the same compound, the EC50 in data set [1] was 95 nM; in data set [2], 120 nM; in [11], 229 nM; in data set [3] it was over 3000 nM; in [4], over 3000 nM.
In the case of `CC1CN(c2ccc(Nc3ncc4cc5n(c4n3)C3(CCCC3)CNC5=O)nc2)CCN1CCC(C)(C)C` (stereo not drawn) [PPP], the IC50 was determined as 0.8 nM on CDK4/CyclinD1 (Table 2, ATP at Km (200 μM)); 16.5 µM on CDK2/CyclinE; 2640 nM on CDK2/CyclinA.
In data set [1], `CCN(CC)C1CCN(c2ccc(Nc3ncc4cc5n(c4n3)C3(CCCCC3)CNC5=O)nc2)C1` (stereo not drawn) [QQ] gave a 50% effective concentration (EC50) of 120 nM.
`C[C@@H](O)CN1CCN(c2ccc(Nc3ncc4cc5n(c4n3)C3(CCCCC3)CNC5=O)nc2)CC1` [S]: the IC50 on CDK4/CyclinD1 (Table 2, ATP at Km (200 μM)) turned out to be 1.7 nM.
Still for that read-out and setting: the same measure for `CC(C)[C@H]1CNC(=O)c2cc3cnc(Nc4ccc(N5CCNCC5)cn4)nc3n21` [UUU]: 18 nM.
For `CCN(CC)C1CCN(c2ccc(Nc3ncc4cc5n(c4n3)C3(CCCC3)CNC5=O)nc2)C1` (stereo not drawn) [UU], a half-maximal effect in data set [1] (EC50) was put at 300 nM.
The same measure, in the same setting: the same measure for `O=C1NCC2(CCCC2)n2c1cc1cnc(Nc3ccc(N4CCC(N5CCOCC5)CC4)cn3)nc12` [WW]: 400 nM.
Turning to `N#Cc1ccc(C(c2ccc(C#N)cc2)n2cncn2)cc1` [letrozole], the “median OS” value in data set [12] is 33.3 months.
